# Patent US4513001A, “β-Adrenergic 1-[1-benzimidazolyl]-N-[2-(4-hydroxy-3-methoxy-phenyl)-2-hydroxy-ethyl]- 3-amino butane and salts and hydrates thereof” (priority 1982, dated 1985)
# Where two headings read alike, the source gives them in different places.
# Columns and labels:
# [1] = system: isolated trachea preparation of the guinea pig; assay: Relaxant activity on isolated tracheal muscle in vitro; conditions: 6 preparations
# Experimental: This activity was studied on an isolated trachea preparation of the guinea pig (chain of tracheal rings, according to CASTILLO and BEER. Journ. Pharmacol. Exp. Ther. 1947 90 104-109), kept alive in a KREBS solution. The effect of cumulative doses on the pressure of the preparation was recorded.
# The activity of the substance was expressed by the value of the molar CD50 (decontracting concentration 50=concentration giving 50% of maximum relaxation), of which the negative log. is the value pD2, and by the intrinsic activity corresponding to maximum effect.
# These values were determined in parallel for the compound A and Salbutamol, on 6 preparations for each.
# [2] = system: heart rate and mean aortic pressure; assay: Heart rate and mean aortic pressure of the anesthetised dog, intraduodenal; format: in vivo; conditions: intraduodenal
# Experimental: 3.1.1. Activity on the heart rate and on the mean aortic pressure of the anesthetisied dog
# The activity of the compound A and of Salbutamol was studied on 2 batches of 3 dogs per product: one in spontaneous respiration, the other in artificial respiration; the two substances were administered intraduodenally at 3 doses: 0.008-0.025 and 0.08 mg/kg.
# histamine bronchospasm [3] = assay: Bronchodilator activity in vivo, anesthetized dog, intraduodenal (intratracheal pressure, histamine bronchospasm)
# Experimental: 1.2.2. In the anesthesized dog (recording of the intratracheal pressure)
# A bronchospasm was caused by intravenous injection and histamine. The bronchodilator activity was shown by partial or total inhibition of this spasm.
# The products studied were administered intraduodenally and the histamine injected then at various times to follow the effect of the treatment.
# The results borne in the table below are the averages of the values obtained in 3 animals for each product.
# histamine bronchospasm [4] = assay: Bronchodilator activity in vivo, anesthetized guinea pig, intravenous (inhibition of histamine bronchospasm, KONZETT); conditions: i.v.
# Experimental: (§1) 1.2.1 In the anesthesized guinea pig (method of KONZETT. Arch. Exp. Pathol. Pharmakol. 1940 195 71-74)
# (§2) A bronchospasm was caused by intravenous histamine injection. The bronchodilator activity was shown by partial or total inhibition of this spasm.
# The product studied was administered intravenously or intraduodenaly and histamine injected then at different times to follow the delay in appearance and the duration of the inhibiting effect of the treatment. […]
# [5] = system: isolated right atrium preparation of the guinea pig; assay: Activity on the heart rate in vitro, isolated right atrium
# Experimental: This action was studied on an isolated right atrium preparation of the guinea pig kept alive in a RINGER solution. The effect of cumulative doses on the heart rate was recorded. The results below are the averages of 6 preparations of the compound A, of 4 for Salbutamol
# guinea pig trachea = assay: β-stimulant specificity: guinea pig trachea before and after propranolol; conditions: for EC50: Cavia porcellus, 6 preparations
# Description: respiratory (guinea pig trachea, in vitro)
# cardiovascular (heart rate of the dog, in vivo) by the antagonistic effect of a β-blocking product.
# histamine bronchospasm [6] = assay: Bronchodilator activity in vivo, anesthetized guinea pig, intraduodenal (inhibition of histamine bronchospasm, KONZETT)
# Experimental: as §1, §2
# The product studied was administered intravenously or intraduodenaly and histamine injected then at different times to follow the delay in appearance and the duration of the inhibiting effect of the treatment.
# The results below are the averages of the values obtained in 10 animals.
# rat uterus preparation = assay: Uterus relaxing activity in vitro; conditions: Rattus norvegicus, 7 preparations, read-out: CE50 (effective concentration 50, inhibiting by 50% the control contraction)
# Description: This activity was investigated on a rat uterus preparation, put into estrus by cutaneous injection of oestradiol benzoate. The uterine horns were kept alive in a RINGER-LOCKE solution, modified by GADDUM and VOGT.
# Their activity is expressed by the value of the molar CE50 (effective concentration 50, inhibiting by 50% the control contraction induced by the contracting agent).
# Each CE50 indicated below was obtained from the results of 7 preparations.
smiles,measurement,setting,value
"CC(C)(C)NCC(O)c1ccc(O)c(CO)c1 (stereo not drawn) [Salbutamol, reference compound]",Maximum response (decontraction),[1],358 mg
same,Emax,"[1]; Cavia porcellus, Salbutamol 1.00, read-out: Intrinsic activity",100%
same,EC50,"[1]; Cavia porcellus, read-out: CD50 (decontracting concentration 50, concentration giving 50% of maximum relaxation)",0.015 µM
same,EC50,"[1]; Cavia porcellus, negative log of molar CD50, read-out: pD2 (converted)",0.0151 µM
same,"Heart rate, maximum cumulative effect","[2]; artificial respiration, 15 min after 0.025 mg/kg",+41 cpm
same,"Average aortic pressure, maximum cumulative effect","[2]; artificial respiration, 90 min after 0.08 mg/kg",-36 mmHg
same,"Heart rate, maximum cumulative effect","[2]; spontaneous respiration, 20 min after 0.08 mg/kg",+26 cpm
same,"Average aortic pressure, maximum cumulative effect","[2]; spontaneous respiration, 1 h after 0.08 mg/kg",-40 mmHg
same,% inhibition in time,"histamine bronchospasm [3]; 0.025 mg base/kg, 5 min",21%
same,% inhibition in time,"histamine bronchospasm [3]; 0.025 mg base/kg, 20 min",65%
same,% inhibition in time,"histamine bronchospasm [3]; 0.025 mg base/kg, 35 min",63%
same,% inhibition in time,"histamine bronchospasm [3]; 0.025 mg base/kg, 60 min",61%
same,% inhibition in time,"histamine bronchospasm [3]; 0.025 mg base/kg, 90 min",65%
same,% inhibition in time,"histamine bronchospasm [3]; 0.08 mg base/kg, 5 min",8%
same,% inhibition in time,"histamine bronchospasm [3]; 0.08 mg base/kg, 20 min",50%
same,% inhibition in time,"histamine bronchospasm [3]; 0.08 mg base/kg, 35 min",56%
same,% inhibition in time,"histamine bronchospasm [3]; 0.08 mg base/kg, 60 min",55%
same,% inhibition in time,"histamine bronchospasm [3]; 0.08 mg base/kg, 90 min",52%
same,% inhibition in time,"histamine bronchospasm [4]; 0.08 μg base/kg, 1 min",8%
same,% inhibition in time,"histamine bronchospasm [4]; 0.08 μg base/kg, 5 min",2%
same,% inhibition in time,"histamine bronchospasm [4]; 0.08 μg base/kg, 10 min",0%
same,% inhibition in time,"histamine bronchospasm [4]; 0.08 μg base/kg, 15 min",1%
same,% inhibition in time,"histamine bronchospasm [4]; 0.25 μg base/kg, 1 min",25%
same,% inhibition in time,"histamine bronchospasm [4]; 0.25 μg base/kg, 5 min",6%
same,% inhibition in time,"histamine bronchospasm [4]; 0.25 μg base/kg, 10 min",2%
same,% inhibition in time,"histamine bronchospasm [4]; 0.25 μg base/kg, 15 min",2%
same,% inhibition in time,"histamine bronchospasm [4]; 0.8 μg base/kg, 1 min",54%
same,% inhibition in time,"histamine bronchospasm [4]; 0.8 μg base/kg, 5 min",8%
same,% inhibition in time,"histamine bronchospasm [4]; 0.8 μg base/kg, 10 min",7%
same,% inhibition in time,"histamine bronchospasm [4]; 0.8 μg base/kg, 15 min",2%
same,% inhibition in time,"histamine bronchospasm [4]; 2.5 μg base/kg, 1 min",75%
same,% inhibition in time,"histamine bronchospasm [4]; 2.5 μg base/kg, 5 min",13%
same,% inhibition in time,"histamine bronchospasm [4]; 2.5 μg base/kg, 10 min",8%
same,% inhibition in time,"histamine bronchospasm [4]; 2.5 μg base/kg, 15 min",4%
same,% inhibition in time,"histamine bronchospasm [4]; 8 μg base/kg, 1 min",91%
same,% inhibition in time,"histamine bronchospasm [4]; 8 μg base/kg, 5 min",35%
same,% inhibition in time,"histamine bronchospasm [4]; 8 μg base/kg, 10 min",13%
same,% inhibition in time,"histamine bronchospasm [4]; 8 μg base/kg, 15 min",8%
same,% inhibition in time,"histamine bronchospasm [4]; 25 μg base/kg, 1 min",97%
same,% inhibition in time,"histamine bronchospasm [4]; 25 μg base/kg, 5 min",78%
same,% inhibition in time,"histamine bronchospasm [4]; 25 μg base/kg, 10 min",34%
same,% inhibition in time,"histamine bronchospasm [4]; 25 μg base/kg, 15 min",22%
same,% inhibition in time,"histamine bronchospasm [4]; 83 μg base/kg, 1 min",94%
same,% inhibition in time,"histamine bronchospasm [4]; 83 μg base/kg, 5 min",81%
same,% inhibition in time,"histamine bronchospasm [4]; 83 μg base/kg, 10 min",60%
same,% inhibition in time,"histamine bronchospasm [4]; 83 μg base/kg, 15 min",55%
same,% inhibition in time,"histamine bronchospasm [4]; 83 μg base/kg, 30 min",50%
same,% inhibition in time,"histamine bronchospasm [4]; 83 μg base/kg, 45 min (n = 9)",30%
same,% inhibition in time,"histamine bronchospasm [4]; 83 μg base/kg, 60 min (n = 9)",17%
same,"Heart rate, increase",[5]; 1 × 10^-4 mol,+110 beats per min.
same,"Heart rate, maximum","[5]; 1 × 10^-4 mol, basal 202 (Salbutamol)",312 beats per min.
same,"Heart rate, increase",[5]; 1 × 10^-5 mol (maxi for Salbutamol),+115 beats per min.
same,"Heart rate, maximum","[5]; 1 × 10^-5 mol, basal 209 (Compound A), 202 (Salbutamol)",317 beats per min.
same,"Heart rate, increase",[5]; 1 × 10^-6 mol (maxi for Compound A),+106 beats per min.
same,"Heart rate, maximum","[5]; 1 × 10^-6 mol, basal 209 (Compound A), 202 (Salbutamol)",308 beats per min.
same,"Heart rate, increase",[5]; 1 × 10^-7 mol,+90 beats per min.
same,"Heart rate, maximum","[5]; 1 × 10^-7 mol, basal 209 (Compound A), 202 (Salbutamol)",292 beats per min.
same,"Heart rate, increase",[5]; 1 × 10^-8 mol,+49 beats per min.
same,"Heart rate, maximum","[5]; 1 × 10^-8 mol, basal 202 (Salbutamol)",251 beats per min.
same,EC50,guinea pig trachea; read-out: CD50 before propranolol,0.011 µM
same,EC50,"guinea pig trachea; propranolol 1.7×10^-8 mol, read-out: CD50 after propranolol",0.038 µM
same,Ratio of CD50,guinea pig trachea; after / before propranolol,3.5
same,Dose to obtain a high activity,histamine bronchospasm [6],8 mg/kg
same,% inhibition in time,"histamine bronchospasm [6]; 0.8 mg base/kg, 1 min",4%
same,% inhibition in time,"histamine bronchospasm [6]; 0.8 mg base/kg, 5 min",18%
same,% inhibition in time,"histamine bronchospasm [6]; 0.8 mg base/kg, 15 min",16%
same,% inhibition in time,"histamine bronchospasm [6]; 0.8 mg base/kg, 30 min",16%
same,% inhibition in time,"histamine bronchospasm [6]; 0.8 mg base/kg, 45 min",13%
same,% inhibition in time,"histamine bronchospasm [6]; 0.8 mg base/kg, 60 min",13%
same,% inhibition in time,"histamine bronchospasm [6]; 2.5 mg base/kg, 1 min",2%
same,% inhibition in time,"histamine bronchospasm [6]; 2.5 mg base/kg, 5 min",14%
same,% inhibition in time,"histamine bronchospasm [6]; 2.5 mg base/kg, 15 min",32%
same,% inhibition in time,"histamine bronchospasm [6]; 2.5 mg base/kg, 30 min",34%
same,% inhibition in time,"histamine bronchospasm [6]; 2.5 mg base/kg, 45 min",29%
same,% inhibition in time,"histamine bronchospasm [6]; 2.5 mg base/kg, 60 min",23%
same,% inhibition in time,"histamine bronchospasm [6]; 2.5 mg base/kg, 90 min",15%
same,% inhibition in time,"histamine bronchospasm [6]; 2.5 mg base/kg, 120 min",10%
same,% inhibition in time,"histamine bronchospasm [6]; 8 mg base/kg, 1 min",31%
same,% inhibition in time,"histamine bronchospasm [6]; 8 mg base/kg, 5 min",64%
same,% inhibition in time,"histamine bronchospasm [6]; 8 mg base/kg, 15 min",76%
same,% inhibition in time,"histamine bronchospasm [6]; 8 mg base/kg, 30 min",72%
same,% inhibition in time,"histamine bronchospasm [6]; 8 mg base/kg, 45 min",65%
same,% inhibition in time,"histamine bronchospasm [6]; 8 mg base/kg, 60 min",58%
same,% inhibition in time,"histamine bronchospasm [6]; 8 mg base/kg, 90 min",52%
same,% inhibition in time,"histamine bronchospasm [6]; 8 mg base/kg, 120 min (n = 9 compound A, n = 8 Salbutamol)",37%
same,EC50,rat uterus preparation; contracting agent acetylcholine,0.005 µM
same,EC50,rat uterus preparation; contracting agent serotonine,0.0083 µM
